In one data set the target is T1, pancreatic lipase (PL) (Sus scrofa, UniProt P00591).
T1 construct: Enriched preparation from porcine pancreas; purchased Sigma L-0382; host or cells: porcine pancreas (tissue preparation)
T1 sequence (P00591 1-450): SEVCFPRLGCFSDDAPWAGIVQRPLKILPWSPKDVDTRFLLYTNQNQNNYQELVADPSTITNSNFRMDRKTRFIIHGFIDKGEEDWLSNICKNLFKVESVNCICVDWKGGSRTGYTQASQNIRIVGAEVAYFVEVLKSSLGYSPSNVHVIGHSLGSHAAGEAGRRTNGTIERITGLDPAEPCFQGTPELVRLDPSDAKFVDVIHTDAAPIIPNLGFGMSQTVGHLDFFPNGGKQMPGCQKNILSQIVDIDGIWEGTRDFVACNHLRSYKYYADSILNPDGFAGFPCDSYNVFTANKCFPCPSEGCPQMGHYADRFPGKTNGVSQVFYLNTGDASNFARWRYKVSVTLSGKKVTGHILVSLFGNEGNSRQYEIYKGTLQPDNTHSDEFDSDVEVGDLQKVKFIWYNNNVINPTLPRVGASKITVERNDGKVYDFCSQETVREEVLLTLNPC
The data set can be described thus: Pancreatic lipase enzyme assay (release of radiolabeled oleate from tripalmitin/glycerol tri[3H]oleate substrate). It is filed as biochemical. The note with it: enriched preparation from porcine pancreas, 30° C., 30 min, up to 8 concentrations. How it is done: The effect of the compounds according to the invention of formula 1 was tested using the following enzyme assay system: [lacuna]
The activity of the compounds was assayed as follows:
1. Preparation of the Substrate:
80 μL of tripalmitin (85 mM in chloroform) are mixed with 5 μL of glycerol tri[9,10(n)-^3H]oleate (5 mCi/mL in toluene) in a 12 mL polypropylene vessel. Evaporation in a rotary evaporator (50° C.) and addition of 4 mL of 200 mM Tris/HCl (pH 7.6), 0.8% TX-100 are followed by ultrasound treatment of the mixture (Branson B-12 sonifier, output level 4, 3×2 min with 1 min intervals on ice) until a homogeneous milky suspension is produced.
Lipase buffer: 80 mM Tris/HCl (pH 7.6), 600 mM NaCl, 8 mM CaCl2, 8 mM benzamidine, 2 mM Pefabloc (Roche Biochemicals) (add the inhibitors only on the day of the assay)
Pancreatic lipase: Enriched preparation from porcine pancreas (Sigma order No. L-0382) dissolved in lipase buffer (100 000 units/500 μL)
5 μL of test substance (in 100% DMSO) or DMSO (control) are mixed with 10 μL of substrate and 5 μL of lipase (in this sequence) and incubated at 30° C. (Eppendorf Thermomixer, 350 min^−1) for 30 min. After addition of 325 μL of methanol/chloroform/n-heptane (10/9/7) and 105 μl of 0.1 M K2CO3, 0.1 M H3BO3 (pH 10.5 adjusted with 1 M KOH) and vigorous mixing, the phases are separated by centrifugation (8000 rpm, Eppendorf centrifuge, 4° C.). 140 μL portions of the aqueous supernatant (contains the liberated radiolabeled oleate; 70% recovery) are transferred into 20 mL scintillation vials and mixed with 6 mL of scintillation cocktail (Beckman ReadySafe). After vigorously mixing and incubating at room temperature for 2 h, the radioactivity is measured in a liquid scintillation counter (Beckman, L8008, tritium channel with quench curve, measurement time 20 min).
Substances are routinely tested in each concentration in three independent incubation mixtures each with duplicate determination after phase separation (SD<0.02). Background values (reaction under the same conditions but without lipase) are subtracted from all values (corresponds predominantly to the content of glycerol trioleate or free oleate in the substrate preparation in the aqueous phase, <5% of the radioactivity employed). The inhibition of the pancreatic lipase enzymatic activity by a test substance is determined by comparison with an uninhibited control reaction (presence of lipase=0% inhibition; absence of lipase 100% inhibition in each case after background correction). The IC50 is calculated from an inhibition plot with up to 8 concentrations of the test substance. The software package GRAPHIT (Elsevier-BIOSOFT) is used for curve fitting and IC50 determination.
In general, IC50 refers to the midpoint of a concentration-inhibition curve. Low readings indicate greater potency in that assay, high ones weaker potency in that assay. Consider `CCCCCCCCCCCCCCCCOc1nn(-c2cccc(OC(F)(F)F)c2)c(=O)o1` [Example 4, 5-Hexadecyloxy-3-(3-trifluoromethoxy-phenyl)-3H-(1,3,4)-oxadiazol-2-one], for which the IC50 worked out at 2.5 µM.

For the molecule `CCCCCCCCCCCCCCCCOc1nn(-c2ccc(OC(F)(F)F)cc2)c(=O)o1` [Example 2, 5-Hexadecyloxy-3-(4-trifluoromethoxy-phenyl)-3H-(1,3,4)-oxadiazol-2-one], the IC50 was determined as 0.25 µM.

As for `CCCCCCCCOc1nn(-c2ccc(OC(F)(F)F)cc2)c(=O)o1` [Example 3, 5-Octyloxy-3-(4-trifluoromethoxy-phenyl)-3H-(1,3,4)-oxadiazol-2-one], the IC50 is 0.35 µM. The IC50 values of the last two molecules are within 1.5-fold of each other.

`CCCCCCCCCCCCOc1nn(-c2ccc(OC(F)(F)F)cc2)c(=O)o1` [Example 1, 5-Dodecyloxy-3-(4-trifluoromethoxy-phenyl)-3H-(1,3,4)-oxadiazol-2-one] came in with an IC50 of 0.03 µM.

In turn, `CCCCCCCCOc1nn(-c2ccccc2)c(=O)o1` [Example 6, 5-Octyloxy-3-phenyl-3H-(1,3,4)-oxadiazol-2-one] registered a concentration for half-maximal inhibition (IC50) of 0.9 µM.

In turn, `CCCCCCCCCCCCCCCCOc1nn(-c2ccc(Oc3ccc(Cl)cc3)cc2)c(=O)o1` [Example 5, 5-Hexadecyloxy-3-(4-(4-chlorophenoxy)-phenyl)-3H-(1,3,4)-oxadiazol-2-one] had a 50% inhibitory concentration (IC50) of 2 µM.

The molecule `CCCCCCCCCCCOc1nn(-c2ccc(OC(F)(F)F)cc2)c(=O)o1` [Example 15, 5-Undecyloxy-3-(4-trifluoromethoxy-phenyl)-3H-(1,3,4)-oxadiazol-2-one] had an IC50 of 0.6 µM. Compared with the last molecule, the IC50 is about 3.3-fold lower.

System in another data set: not given
Assay: not given
Details: not given
Usually melting point stands for the temperature, or range, at which the solid turns liquid. For the molecule `CCCCCCCCCCCCCCCCOc1nn(-c2cccc(OC(F)(F)F)c2)c(=O)o1` [Example 4, 5-Hexadecyloxy-3-(3-trifluoromethoxy-phenyl)-3H-(1,3,4)-oxadiazol-2-one], the melting point was 53 °C.

`CCCCCCCCCCCCCCCCOc1nn(-c2ccc(OC(F)(F)F)cc2)c(=O)o1` [Example 2, 5-Hexadecyloxy-3-(4-trifluoromethoxy-phenyl)-3H-(1,3,4)-oxadiazol-2-one] showed a melting point of 56 °C.

On to `CCCCCCCCCCCCCCCCOc1nn(-c2ccc(OCc3ccccc3)cc2)c(=O)o1` [Example 13, 5-Hexadecyloxy-3-(4-benzyloxy-phenyl)-3H-(1,3,4)-oxadiazol-2-one], for which the melting point is 73 °C.

In turn, `CC(C)CCC[C@@H](C)[C@H]1CC[C@H]2[C@@H]3CCC4C[C@@H](Oc5nn(-c6ccc(OC(F)(F)F)cc6)c(=O)o5)CC[C@]4(C)[C@H]3CC[C@]12C` (some centres unmarked) displayed a melting point of 127 °C.

Molecule `CCCCCCCCCCCCCCCCOc1nn(-c2cccc(OCc3ccccc3)c2)c(=O)o1` [Example 9, 5-Hexadecyloxy-3-(3-benzyloxy-phenyl)-3H-(1,3,4)-oxadiazol-2-one] showed a melting point of 65 °C.

`CCCCCCCCCCCCCOc1nn(-c2ccc(OC(F)(F)F)cc2)c(=O)o1` [Example 17, 5-Tridecyloxy-3-(4-trifluoromethoxy-phenyl)-3H-(1,3,4)-oxadiazol-2-one] had a melting point of 50 °C.

`CCCCCCCCCCCCOc1nn(-c2cccc([N+](=O)[O-])c2)c(=O)o1` [Example 34, 5-(Dodecyloxy)-3-(3-nitro-phenyl)-3H-(1,3,4)-oxadiazol-2-one] came in with a melting point of 64 °C.

`CCCCCCCCCCCCOc1nn(-c2ccc(OC(F)(F)F)cc2)c(=O)o1` [Example 29, 5-(Dodecyloxy)-3-(4-trifluoromethoxy-phenyl)-3H-(1,3,4)-oxadiazol-2-one] showed a melting point of 41 °C.

Consider `O=c1oc(OCCc2ccc(F)cc2)nn1-c1ccc(OC(F)(F)F)cc1` [Example 21, 5-(2-(4-Fluorophenyl)-ethoxy)-3-(4-trifluoromethoxy-phenyl)-3H-(1,3,4)-oxadiazol-2-one], for which the melting point was determined as 60 °C.

Molecule `CCCCCCCCCCCCCCCCOc1nn(-c2ccc(OC)cc2)c(=O)o1` [Example 12, 5-Hexadecyloxy-3-(4-methoxy-phenyl)-3H-(1,3,4)-oxadiazol-2-one] showed a melting point of 66 °C.

Consider `CCCCCCCCCCCCOc1nn(-c2ccc([N+](=O)[O-])c(OCc3ccc(F)cc3)c2)c(=O)o1` [Example 39, 5-(Dodecyloxy)-3-(3-(4-fluorobenzyloxy)-4-nitro-phenyl)-3H-(1,3,4)-oxadiazol-2-one], for which the melting point was 71 °C.

On to `CCCCCCCCOc1nn(-c2ccccc2)c(=O)o1` [Example 6, 5-Octyloxy-3-phenyl-3H-(1,3,4)-oxadiazol-2-one], for which the melting point was found to be 38 °C.

`CCCCCCCCCCCCOc1nn(-c2cccc(OC)c2)c(=O)o1` [Example 32, 5-(Dodecyloxy)-3-(3-methoxy-phenyl)-3H-(1,3,4)-oxadiazol-2-one] yielded a melting point of 51 °C.

`CCCCCCCCCCCCCCCCOc1nn(-c2ccccc2)c(=O)o1` [Example 10, 5-Hexadecyloxy-3-phenyl-3H-(1,3,4)-oxadiazol-2-one] yielded a melting point of 63 °C.

`CCCCCCCCCCCCCCCCOc1nn(-c2cccc(F)c2)c(=O)o1` [Example 8, 5-Hexadecyloxy-3-(3-fluoro-phenyl)-3H-(1,3,4)-oxadiazol-2-one] gave a melting point of 58 °C.

`CCCCCCCCCCCCOc1nn(-c2cc(Cl)cc(Cl)c2)c(=O)o1` [Example 31, 5-(Dodecyloxy)-3-(3,5-dichloro-phenyl)-3H-(1,3,4)-oxadiazol-2-one]: the melting point was 48 °C.

Turning to `CCCCCCCCCCCCOc1nn(-c2ccc([N+](=O)[O-])c(C)c2)c(=O)o1` [Example 41, 5-(Dodecyloxy)-3-(3-methyl-4-nitro-phenyl)-3H-(1,3,4)-oxadiazol-2-one], the melting point came to 62 °C.

In turn, `CCCCCCCCCCCCOc1nn(-c2ccc(Cl)c(Cl)c2)c(=O)o1` [Example 30, 5-(Dodecyloxy)-3-(3,4-dichloro-phenyl)-3H-(1,3,4)-oxadiazol-2-one] had a melting point of 74 °C.

With `CCCCCCCCCCCCOc1nn(-c2cccc(F)c2)c(=O)o1` [Example 38, 5-(Dodecyloxy)-3-(3-fluoro-phenyl)-3H-(1,3,4)-oxadiazol-2-one], the melting point was determined as 44 °C.

`CCCCCCCCCCCCCCCCCCCCCCOCCOc1nn(-c2ccc(OC(F)(F)F)cc2)c(=O)o1` [Example 25, 5-(Docosyloxy-ethoxy)-3-(4-trifluoromethoxy-phenyl)-3H-(1,3,4)-oxadiazol-2-one]: the melting point is 71 °C.

Take `CCCCCCCCCCCCOc1nn(-c2cccc(C(F)(F)F)c2)c(=O)o1` [Example 35, 5-(Dodecyloxy)-3-(3-trifluoromethyl-phenyl)-3H-(1,3,4)-oxadiazol-2-one]: the melting point amounted to 43 °C.

For `CCCCCCCCCCCCCCCCOc1nn(-c2ccc(Oc3ccc(Cl)cc3)cc2)c(=O)o1` [Example 5, 5-Hexadecyloxy-3-(4-(4-chlorophenoxy)-phenyl)-3H-(1,3,4)-oxadiazol-2-one], the melting point was 52 °C.

In the case of `CCCCCCCCCCCCOc1nn(-c2ccc(OCc3ccccc3)cc2)c(=O)o1` [Example 37, 5-(Dodecyloxy)-3-(4-benzyloxy-phenyl)-3H-(1,3,4)-oxadiazol-2-one], the melting point was determined as 65 °C.

`CCCCCCCCCCCCOc1nn(-c2ccc([N+](=O)[O-])cc2C)c(=O)o1` [Example 40, 5-(Dodecyloxy)-3-(2-methyl-4-nitro-phenyl)-3H-(1,3,4)-oxadiazol-2-one]: the melting point was determined as 63 °C.

As to `CCCCCCCCCCCOc1nn(-c2ccc(OC(F)(F)F)cc2)c(=O)o1` [Example 15, 5-Undecyloxy-3-(4-trifluoromethoxy-phenyl)-3H-(1,3,4)-oxadiazol-2-one], the melting point came out at 38 °C.

Regarding `CCCCCCCCCCCCCCOc1nn(-c2ccc(OC(F)(F)F)cc2)c(=O)o1` [Example 16, 5-Tetradecyloxy-3-(4-trifluoromethoxy-phenyl)-3H-(1,3,4)-oxadiazol-2-one], the melting point was found to be 46 °C.

`CCCCCCCCCCCCOc1nn(-c2ccc(OC)cc2)c(=O)o1` [Example 33, 5-(Dodecyloxy)-3-(4-methoxy-phenyl)-3H-(1,3,4)-oxadiazol-2-one]: the melting point was determined as 57 °C.

`CCCCCCCCCCCCCCCCOc1nn(-c2ccc([N+](=O)[O-])cc2)c(=O)o1` [Example 11, 5-Hexadecyloxy-3-(4-nitro-phenyl)-3H-(1,3,4)-oxadiazol-2-one] yielded a melting point of 72 °C.

The values are drawn from US6900233B2, “Substituted 3-phenyl-5-alkoxy-3H-(1,3,4)-oxadiazol-2-ones, pharmaceutical composition and method for treating obesity thereof” (Aventis Pharma Deutschland GmbH, priority 2002, dated 2005).
